# Results: patent publication US20200170975A1 (Strongbridge Dublin Limited, priority 2018, published 2020)
# Like-named read-outs stand apart in the source and are kept apart here.
# How the values were obtained:
# OAT4 = target: T1, OAT4 (Homo sapiens, UniProt Q9NSA0); assay: OAT4 inhibition: accumulation of [3H]-estrone-3-sulfate in S2 cells; format: in vitro ADME
# T1 construct: expressed in transfected cells; host or cells: S2 cells
# T1 sequence (Q9NSA0 1-550): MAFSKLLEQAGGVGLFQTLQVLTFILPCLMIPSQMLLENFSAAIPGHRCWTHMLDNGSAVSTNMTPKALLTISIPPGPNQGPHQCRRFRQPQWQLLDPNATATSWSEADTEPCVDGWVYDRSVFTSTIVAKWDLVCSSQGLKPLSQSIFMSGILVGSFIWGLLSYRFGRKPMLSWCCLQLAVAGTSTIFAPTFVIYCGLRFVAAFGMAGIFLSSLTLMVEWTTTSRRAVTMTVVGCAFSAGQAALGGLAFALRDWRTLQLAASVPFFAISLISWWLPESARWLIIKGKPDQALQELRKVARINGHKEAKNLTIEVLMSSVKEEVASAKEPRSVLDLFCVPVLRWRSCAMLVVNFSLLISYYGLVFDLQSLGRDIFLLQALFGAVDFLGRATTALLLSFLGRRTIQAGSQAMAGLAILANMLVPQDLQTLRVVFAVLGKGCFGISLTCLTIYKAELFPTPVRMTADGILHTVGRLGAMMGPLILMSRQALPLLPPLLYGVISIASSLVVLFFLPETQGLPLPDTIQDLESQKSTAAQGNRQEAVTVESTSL
# Procedure: Schneider 2 (S2) cells are a commonly used Drosophila melanogaster cell lines from a primary culture of late stage (20-24 hours old) embryos from a macrophage-like lineage. S2 cells are used to express heterologous proteins, to produce proteins on a large scale, and to easily and transiently transfect with several plasmids at once to study protein interactions.
# (§1) [^14C]-Metformin (1 mM) was provided as a solid and was prepared in Hank's balanced salt solution (HBSS).
# MATE2-K = MATE2-K (Homo sapiens, UniProt Q86VL8); conditions: for Uptake, MATE2-K (Average ± SD): MATE2-K HEK293 cells; for Uptake, MATE2-K (Average ± SD) / % control / Background corrected uptake rate / Uptake, Control (Average ± SD): [14C]-Metformin 10 μM; for Uptake, Control (Average ± SD): control HEK293 cells
# Procedure: as §1
# (§2) Cells were plated onto standard 24-well tissue culture plates in cell culture medium 1 to 3 days before the experiment. MATE1 and MATE2-K and control cells were incubated with butyric acid (10 mM) for 24 hours before the experiment to inhibit suppression of the transporter.
# MATE1 = target: T2, MATE1 (Homo sapiens, UniProt Q96FL8); conditions: for % control / Background corrected uptake rate: HEK293 cells; for Uptake, MATE1 (Average ± SD): MATE1 HEK293 cells; for Uptake, Control (Average ± SD): control HEK293 cells
# T2 sequence (Q96FL8 1-570): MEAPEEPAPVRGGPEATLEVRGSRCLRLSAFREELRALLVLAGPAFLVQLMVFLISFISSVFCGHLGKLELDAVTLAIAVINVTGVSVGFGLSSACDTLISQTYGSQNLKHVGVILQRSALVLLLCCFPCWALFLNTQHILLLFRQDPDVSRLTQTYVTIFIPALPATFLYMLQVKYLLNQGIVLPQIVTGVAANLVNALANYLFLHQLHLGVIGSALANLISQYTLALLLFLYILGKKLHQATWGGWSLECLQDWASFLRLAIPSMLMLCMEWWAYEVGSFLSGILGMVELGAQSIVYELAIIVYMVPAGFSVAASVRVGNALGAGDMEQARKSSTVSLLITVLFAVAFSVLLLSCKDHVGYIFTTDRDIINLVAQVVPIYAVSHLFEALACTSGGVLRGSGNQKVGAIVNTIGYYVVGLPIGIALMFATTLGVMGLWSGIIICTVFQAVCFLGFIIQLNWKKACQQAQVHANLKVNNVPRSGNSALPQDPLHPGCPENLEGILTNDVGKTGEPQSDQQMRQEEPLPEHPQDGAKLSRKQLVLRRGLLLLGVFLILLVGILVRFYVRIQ
# Procedure: as §1, §2
# [1] = cited from earlier work
# Sequence of MATE2-K (Q86VL8 1-566 isoform Q86VL8-3): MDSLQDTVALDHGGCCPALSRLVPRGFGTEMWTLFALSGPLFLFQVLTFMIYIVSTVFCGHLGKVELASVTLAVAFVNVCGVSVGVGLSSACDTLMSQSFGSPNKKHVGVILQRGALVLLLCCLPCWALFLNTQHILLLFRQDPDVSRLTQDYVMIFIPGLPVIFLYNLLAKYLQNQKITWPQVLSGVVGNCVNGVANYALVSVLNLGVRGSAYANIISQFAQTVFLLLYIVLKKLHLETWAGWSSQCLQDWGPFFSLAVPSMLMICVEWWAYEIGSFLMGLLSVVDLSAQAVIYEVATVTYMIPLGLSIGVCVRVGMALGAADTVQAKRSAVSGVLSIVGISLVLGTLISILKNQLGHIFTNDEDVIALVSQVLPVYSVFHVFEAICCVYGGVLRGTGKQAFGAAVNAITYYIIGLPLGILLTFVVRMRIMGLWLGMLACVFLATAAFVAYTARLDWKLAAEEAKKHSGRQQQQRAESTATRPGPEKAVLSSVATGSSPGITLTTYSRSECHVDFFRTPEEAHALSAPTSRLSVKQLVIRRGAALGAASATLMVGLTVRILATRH
compound,measurement,setting,value
"NS(=O)(=O)c1cc(Cl)c(Cl)c(S(N)(=O)=O)c1 [Dichlorphenamide, 4,5-dichloro-1,3-benzenedisulfonamide]",IC50,OAT4,> 1000 µM
same,IC50,MATE2-K,> 1000 µM
same,"Uptake, MATE2-K (Average ± SD)",MATE2-K; inhibitor 1 μM,149 ± 29 pmol/mg protein
same,"Uptake, MATE2-K (Average ± SD)",MATE2-K; inhibitor 3 μM,159 ± 19 pmol/mg protein
same,"Uptake, MATE2-K (Average ± SD)",MATE2-K; inhibitor 10 μM,113 ± 8 pmol/mg protein
same,"Uptake, MATE2-K (Average ± SD)",MATE2-K; inhibitor 30 μM,124 ± 36 pmol/mg protein
same,"Uptake, MATE2-K (Average ± SD)",MATE2-K; inhibitor 100 μM,137 ± 15 pmol/mg protein
same,"Uptake, MATE2-K (Average ± SD)",MATE2-K; inhibitor 300 μM,166 ± 16 pmol/mg protein
same,"Uptake, MATE2-K (Average ± SD)",MATE2-K; inhibitor 1000 μM,106 ± 29 pmol/mg protein
same,% control,MATE2-K; inhibitor 1 μM,101%
same,Background corrected uptake rate,MATE2-K; inhibitor 1 μM,28.0 pmol/mg/min
same,% control,MATE2-K; inhibitor 3 μM,108%
same,Background corrected uptake rate,MATE2-K; inhibitor 3 μM,29.9 pmol/mg/min
same,% control,MATE2-K; inhibitor 10 μM,76.1%
same,Background corrected uptake rate,MATE2-K; inhibitor 10 μM,21.0 pmol/mg/min
same,% control,MATE2-K; inhibitor 30 μM,83.7%
same,Background corrected uptake rate,MATE2-K; inhibitor 30 μM,23.1 pmol/mg/min
same,% control,MATE2-K; inhibitor 100 μM,92.4%
same,Background corrected uptake rate,MATE2-K; inhibitor 100 μM,25.5 pmol/mg/min
same,% control,MATE2-K; inhibitor 300 μM,114%
same,Background corrected uptake rate,MATE2-K; inhibitor 300 μM,31.4 pmol/mg/min
same,% control,MATE2-K; inhibitor 1000 μM,73.2%
same,Background corrected uptake rate,MATE2-K; inhibitor 1000 μM,20.2 pmol/mg/min
same,"Uptake, Control (Average ± SD)",MATE2-K; inhibitor 1 μM,9.21 ± 0.93 pmol/mg protein
same,"Uptake, Control (Average ± SD)",MATE2-K; inhibitor 3 μM,9.44 ± 2.27 pmol/mg protein
same,"Uptake, Control (Average ± SD)",MATE2-K; inhibitor 10 μM,8.28 ± 1.46 pmol/mg protein
same,"Uptake, Control (Average ± SD)",MATE2-K; inhibitor 30 μM,8.51 ± 1.05 pmol/mg protein
same,"Uptake, Control (Average ± SD)",MATE2-K; inhibitor 100 μM,9.21 ± 1.52 pmol/mg protein
same,"Uptake, Control (Average ± SD)",MATE2-K; inhibitor 300 μM,8.86 ± 0.93 pmol/mg protein
same,"Uptake, Control (Average ± SD)",MATE2-K; inhibitor 1000 μM,5.13 ± 0.40 pmol/mg protein
same,IC50,"MATE2-K; human, pH 8.5",> 1000 µM
same,IC50,MATE1,> 1000 µM
same,% control,MATE1; inhibitor 1 μm,104%
same,Background corrected uptake rate,MATE1; inhibitor 1 μm,85.8 pmol/mg/min
same,% control,MATE1; inhibitor 3 μm,95.2%
same,Background corrected uptake rate,MATE1; inhibitor 3 μm,78.8 pmol/mg/min
same,% control,MATE1; inhibitor 10 μm,96.4%
same,Background corrected uptake rate,MATE1; inhibitor 10 μm,79.8 pmol/mg/min
same,% control,MATE1; inhibitor 30 μm,103%
same,Background corrected uptake rate,MATE1; inhibitor 30 μm,85.0 pmol/mg/min
same,% control,MATE1; inhibitor 100 μm,99.8%
same,Background corrected uptake rate,MATE1; inhibitor 100 μm,82.6 pmol/mg/min
same,% control,MATE1; inhibitor 300 μm,94.7%
same,Background corrected uptake rate,MATE1; inhibitor 300 μm,78.4 pmol/mg/min
same,% control,MATE1; inhibitor 1000 μm,90.3%
same,Background corrected uptake rate,MATE1; inhibitor 1000 μm,74.7 pmol/mg/min
same,"Uptake, MATE1 (Average ± SD)",MATE1; inhibitor 1 μm,436 ± 23 pmol/mg protein
same,"Uptake, MATE1 (Average ± SD)",MATE1; inhibitor 3 μm,401 ± 7 pmol/mg protein
same,"Uptake, MATE1 (Average ± SD)",MATE1; inhibitor 10 μm,406 ± 12 pmol/mg protein
same,"Uptake, MATE1 (Average ± SD)",MATE1; inhibitor 30 μm,432 ± 10 pmol/mg protein
same,"Uptake, MATE1 (Average ± SD)",MATE1; inhibitor 100 μm,421 ± 17 pmol/mg protein
same,"Uptake, MATE1 (Average ± SD)",MATE1; inhibitor 300 μm,398 ± 17 pmol/mg protein
same,"Uptake, MATE1 (Average ± SD)",MATE1; inhibitor 1000 μm,379 ± 13 pmol/mg protein
same,"Uptake, Control (Average ± SD)",MATE1; inhibitor 1 μm,6.66 ± 1.31 pmol/mg protein
same,"Uptake, Control (Average ± SD)",MATE1; inhibitor 3 μm,6.75 ± 1.65 pmol/mg protein
same,"Uptake, Control (Average ± SD)",MATE1; inhibitor 10 μm,7.43 ± 1.34 pmol/mg protein
same,"Uptake, Control (Average ± SD)",MATE1; inhibitor 30 μm,6.79 ± 0.89 pmol/mg protein
same,"Uptake, Control (Average ± SD)",MATE1; inhibitor 100 μm,7.52 ± 0.96 pmol/mg protein
same,"Uptake, Control (Average ± SD)",MATE1; inhibitor 300 μm,5.56 ± 0.16 pmol/mg protein
same,"Uptake, Control (Average ± SD)",MATE1; inhibitor 1000 μm,5.52 ± 0.21 pmol/mg protein
same,IC50,"MATE1; human, pH 8.5",> 1000 µM
same,solubility in dilute solutions of sodium carbonate and sodium hydroxide,[1]; dilute solutions of sodium carbonate and sodium hydroxide,soluble
same,stability of dilute alkaline solutions,[1]; room temperature,stable
same,solubility in water,[1]; water,very slightly soluble
